From paper doi:10.1101/2025.05.02.651913 (bioRxiv, 2025)
Read-outs that look alike come from different tables or passages of the source.

Tests used:
[1] = test system: MPXV strain hMPXV/USA/MA001/2022 (Lineage B.1, Clade IIb); type: cell-based, Mpox virus (MPXV)
[2] = test system: MPXV (2022 Clade IIb); type: cell-based, Mpox virus (MPXV)
[3] = test system: MPXV (2022 Clade IIb); experiment: microbe, parasite or virus in culture; type: cell-based, Mpox virus (MPXV); conditions: Monkeypox virus, read-out: IC50 (inhibition of MPXV infection)
[4] = test system: VK2/E6E7 cells
[5] = in vitro; conditions: human
[6] = test system: MPXV; type: cell-based, Mpox virus (MPXV)
[7] = test system: phospho-NF-κB; type: cell-based, human
[8] = test system: phospho-STING; type: cell-based, human
[9] = test system: MPXV; parameters: species or system C57BL/6 mice; conditions: mouse, in vivo
[10] = human, in vivo; cited from earlier work

| Compound | Duplicate of Duplicate of Hits: No CPE [1] | further results |
| --- | --- | --- |
| CC(C)n1nc(-c2ccc3oc(N)nc3c2)c2c(N)ncnc21 [INK-128, Sapanisertib] | 1 | antiviral activity at lower concentrations [2]: potent antiviral activity; IC50 [3]: 27.1 nM; concentration at which toxicity was shown ([4]; human): 80 to 100 nM; CC50 [5]: 353 nM |
| Cc1ccc(C(=O)Nc2ccc(CN3CCN(C)CC3)c(C(F)(F)F)c2)cc1C#Cc1cnc2[nH]ncc2c1 [GZD824, Olverembatinib (dimesylate)] | 1 | antiviral activity at lower concentrations [2]: potent antiviral activity |
| PI3K/mTOR Inhibitor-11 | 1 | antiviral activity at lower concentrations [2]: potent antiviral activity; CC50 [4]: 421 nM; concentration at which toxicity was shown [4]: 80 to 100 nM |
| IRAK4-IN-6 | 1 | viral protein in cell lysates (Western blot) [6]: substantially reduced; phospho-NF-κB expression [7]: significantly increased; phospho-STING expression [8]: significantly increased; visible skin lesions or neutrophil infiltration [9]: none of the mice in the IRAK4-IN-6-treated group had visible skin lesions or neutrophil infiltration; CC50 [4]: > 1000 nM; nontoxic up to a concentration [4]: ≤ 1000 nM |
| COc1ncc(-c2ccc3nccc(-c4ccnnc4)c3c2)cc1NS(=O)(=O)c1ccc(F)cc1F [GSK2126458, Omipalisib] | 1 | antiviral activity at lower concentrations [2]: potent antiviral activity |
| COC1(c2sc3c(N4CCOCC4)nc(-c4cnc(N)nc4)nc3c2C)COC1 [GNE-317] | 1 | CC50 [4]: 201 nM; concentration at which toxicity was shown [4]: 80 to 100 nM |
| CCOc1cc2ncc(C#N)c(Nc3ccc(F)c(Cl)c3)c2cc1NC(=O)/C=C/CN(C)C [Pelitinib] | 1 | antiviral activity at lower concentrations [2]: potent antiviral activity |
| CCNC(=O)N1CCc2cc(OC)c(OCCc3ccc(OC)c(N)c3)cc2C1c1ccc(OC)cc1C (stereo not drawn) [KRAS inhibitor-10] | 1 | skin inflammation and lesions at Day 3 [9]: some low-grade inflammation and lesions; skin inflammation and lesions at Day 12 [9]: fully resolved; CC50 [4]: > 1000 nM; nontoxic up to a concentration [4]: ≤ 1000 nM |
| Nc1ccn(C[C@@H](CO)OCP(=O)(O)O)c(=O)n1 [cidofovir] |  | serious side effects in clinical trials [10]: kidney toxicity |
| CN(C)C/C=C/C(=O)Nc1cc2c(Nc3ccc(Cl)c(Br)c3)ncnc2cn1 [MC-Tarlox-TKI, Tarlox-TKI] | 1 |  |
| C=CC(=O)Nc1ccc2ncnc(Nc3cccc(Br)c3)c2c1 [NKIL-PD168393, PD168393] | 1 |  |
| O=C(Nc1ccc([N+](=O)[O-])cc1Cl)c1cc(Cl)ccc1O [Niclosamide] | 1 | viral inhibition compared to vehicle treatment (percent viral infectivity, Fig. 2B) [2]: strongest viral inhibition; IC50 [3]: 11.8 nM; concentration at which toxicity was shown ([4]; human): 80 to 100 nM; CC50 [5]: 96.3 nM |
| COc1cc2c(Nc3ccc(Cl)c(Cl)c3F)ncnc2cc1OC[C@@H]1C[C@@H]2CN(C)C[C@@H]2C1 [MC-Tesevatinib, Tesevatinib] | 1 |  |
| COc1cc2ncnc(Nc3cccc(Br)c3)c2cc1OC.Cl [LOPAC-PD153035 hydrochloride, PD153035 hydrochloride] | 1 |  |
| Cc1ccc(C(=O)Nc2ccc(CN3CCN(C)CC3)c(C(F)(F)F)c2)cc1C#Cc1cnc2cccnn12.Cl [MC-Ponatinib (hydrochloride), Ponatinib (hydrochloride)] | 1 |  |
| CN1CCN(c2ccc(Nc3ncc4nc(Nc5ccccc5)n([C@@H]5CCN(S(=O)(=O)C6CC6)C5)c4n3)cc2)CC1 [MC-EGFR-IN-11, EGFR-IN-11] | 1 |  |
| N[C@@H]1c2ccccc2OC12CCN(c1cnc3c(N4CCCc5ncccc54)n[nH]c3n1)CC2 [MC-Migoprotafib, Migoprotafib] | 1 |  |
| N[C@H]1CC[C@H](Nc2nc(Nc3ccc(C(=O)N4CCCCC4)cc3)c3ncn(-c4cccc(F)c4)c3n2)CC1 [MC-Purfalcamine, Purfalcamine] | 1 |  |
| Afatinib impurity 11 [MC-Afatinib impurity 11] | 1 |  |
| C=CC(=O)Nc1cc(Nc2nccc(-c3cn(C)c4ccccc34)n2)c(OC)cc1N(C)CCN(C)C [NKIL-AZD9291, Osimertinib] | 1 |  |
| C=CC(=O)Nc1cc(Nc2nccc(Nc3cc(Cl)c(F)cc3C(C)(C)O)n2)c(OC)cc1N1CC[C@@H](N(C)C)C1 [MC-Sunvozertinib, Sunvozertinib] | 1 |  |
| CC(=O)Nc1cccc(-n2c(=O)n(C3CC3)c(=O)c3c(Nc4ccc(I)cc4F)n(C)c(=O)c(C)c32)c1.C[S+](C)[O-] [MC-Trametinib (DMSO solvate), Trametinib (DMSO solvate)] | 1 |  |
| JAK-IN-23 [MC-JAK-IN-23] | 1 |  |
| CCN1CCC(Nc2ccc3c(c2)/C(=C(\c2cccc(F)c2)c2ncc(C)[nH]2)C(=O)N3)CC1 [MC-Tyrosine kinase-IN-1, Tyrosine kinase-IN-1] | 1 |  |

| Compound | Duplicate of Duplicate of Hits: No CPE [1] | further results |
| --- | --- | --- |
| C#Cc1cccc(Nc2ncnc3cc(OC)c(NC(=O)N4C[C@H]5CCN(C)[C@H]5C4)cc23)c1 [MC-Theliatinib, Theliatinib] | 1 |  |
| C#Cc1cccc(Nc2ncnc3cc(OCCOC)c(OCCO)cc23)c1.Cl [MC-Desmethyl Erlotinib, Desmethyl Erlotinib] | 1 |  |
| C#Cc1cccc(Nc2ncnc3cc(OCCOC)c(OCCOC)cc23)c1 [Erlotinib] | 1 |  |
| XMU-MP-3 [MC-XMU-MP-3] | 1 |  |
| Mutant EGFR inhibitor [MC-Mutant EGFR inhibitor] | 1 |  |
| O=C(c1ccc(F)c(F)c1Nc1ccc(I)cc1F)N1CC(O)([C@@H]2CCCCN2)C1 (racemic) [MC-Cobimetinib (racemate), Cobimetinib (racemate)] | 1 |  |
| COc1c(F)cccc1Nc1c(-c2ccncc2OCC(C)(C)OC)[nH]c2c1C(=O)NCC2 [MC-BAY 2476568, BAY 2476568] | 1 |  |
| ZX-29 [MC-ZX-29] | 1 |  |
| C=CC(=O)Nc1cccc(Nc2nc(Nc3ccc(NC4CN(CCF)C4)cc3OC)ncc2C(F)(F)F)c1 [NKIL-CNX-2006, CNX-2006] | 1 |  |
| C=CC(=O)Nc1cccc(Oc2nc(Nc3ccc(N4CCN(C)CC4)cc3OC)ncc2Cl)c1 [NKIL-WZ4002, WZ4002] | 1 |  |
| Gilmelisib [MC-Gilmelisib] | 1 |  |
| CCN(CC)CCNC(=O)c1c(C)[nH]c(/C=C2\C(=O)Nc3ccc(Cl)cc32)c1C [MC-SU11652, SU11652] | 1 |  |
| C=CC(=O)Nc1cc(Nc2ncc(C(=O)OC(C)C)c(-c3cn(C)c4ccccc34)n2)c(OC)cc1N(C)CCN(C)C [MC-Mobocertinib, Mobocertinib] | 1 |  |
| CN(C)C/C=C/C(=O)Nc1cc2c(Nc3ccc(F)c(Cl)c3)ncnc2cc1O[C@H]1CCOC1 [NKIL-Afatinib (BIBW2992), Afatinib] | 1 |  |
| O=C(Nc1ncc([N+](=O)[O-])s1)c1ccc([N+](=O)[O-])c(Cl)c1 [SM-7368] | 1 | antiviral activity at lower concentrations [2]: potent antiviral activity; viral protein in cell lysates (Western blot) [6]: substantially reduced; skin inflammation and lesions at Day 3 [9]: some low-grade inflammation and lesions; skin inflammation and lesions at Day 12 [9]: fully resolved; CC50 [4]: > 1000 nM; nontoxic up to a concentration [4]: ≤ 1000 nM |
| CCOc1cc2ncc(C#N)c(Nc3ccc(OCc4ccccn4)c(Cl)c3)c2cc1NC(=O)/C=C/CN(C)C [MC-Neratinib, Neratinib] | 1 |  |
| CN(C)C/C=C/C(=O)Nc1cc2c(Nc3ccc(F)c(Cl)c3)ncnc2cc1OC(F)F.O=C(O)/C=C\C(=O)O.O=C(O)/C=C\C(=O)O [Mefatinib] | 1 | antiviral activity at lower concentrations [2]: potent antiviral activity |
| C=CC(=O)N[C@H]1C=C(C)c2c(-c3cnc4ccccc4c3)c3c(N)ncnc3n2C1 [MC-Zipalertinib, Zipalertinib] | 1 |  |
| CNS(=O)(=O)Nc1nccc(Cc2c(C)c3ccc(Oc4ncccn4)cc3oc2=O)c1F [MC-Avutometinib, Avutometinib] | 1 |  |
| C=CC(=O)Nc1cc(Nc2nccc(-c3cn(CC(F)(F)F)c4ccccc34)n2)c(OC)cc1N(C)CCN(C)C [MC-Befotertinib, Befotertinib] | 1 |  |
| O=C(c1ccc(F)c(F)c1Nc1ccc(I)cc1F)N1CC(O)([C@@H]2CCCCN2)C1 [NKIL-Cobimetinib (GDC-0973, RG7420), Cobimetinib] | 1 |  |
| Cc1cnc(Nc2ccc(F)cc2Cl)nc1-c1c[nH]c(C(=O)N[C@H](CO)c2cccc(Cl)c2)c1 [NKIL-VX-11e, VX-11e] | 1 |  |
| COCc1c(-c2ccc(NC(=O)Nc3cc(C(F)(F)F)ccc3F)c(F)c2)c2c(N)ncnn2c1CN1CCOCC1 [MC-EOC317, EOC317] | 1 |  |
| CN(C)C/C=C/C(=O)Nc1cc2c(Nc3ccc(F)c(Cl)c3)ncnc2cc1OC(F)F [MC-Mefatinib (free base), Mefatinib (free base)] | 1 |  |
